Laboratory results taken from patent publication US6420559B1, “1-(4-arylpiperazin-1-yl)-ω-[N-(α,ω-dicarboximido)]-alkanes useful as uro-selective α1-adrenoceptor blockers” (Ranbaxy Laboratories Limited, priority 1997, dated 2002).
Where a name gives a salt, the structure may show the parent alone.

Assays:
[1] = system: anaesthetized normotensive rats; assay: In vivo blood pressure, anaesthetized normotensive rats, intravenous route; design: species or system rat; details: 0.3 mg/kg intravenous, 3 hours observation
Experimental: (§1) Antihypertensive effect of selected compounds according to the invention were studied for their ability to lower blood pressure in anaesthetized and conscious normotensive and spontaneously hypertensive rats via intravenous, oral and intraduodenal routes.
Male wistar rats were anaesthetized with urethane (2.5 g/kg). Femoral vein and carotid artery were cannulated. Blood pressure and heart rate were recorded using Statham pressure transducer. Data was recorded on Grass polygraph as well as using online data acquisition system (Buxco AT). Intravenously administered compounds of the invention were initially tested at 0.3 mg/kg over a period of 3 hours for their effect on blood pressure and the results are shown in Table 1. For a select few of the compounds, the blood pressure lowering effect upon intravenous administration was also studied at dosages of 0.03, 0.1, 0.3, and 1 mg/kg.

[2] = system: anaesthetized dogs; assay: In vivo selectivity study, phenylephrine-induced blood pressure and intraurethral pressure in anaesthetized dogs; design: species or system dog; details: iv, against phenylephrine dose response
Experimental: Male mongrel dogs (12-20 Kg) were anaesthetized with pentobarbitone sodium (35 mg/kg, iv). Trachea was intubated for artificial respiration. Femoral artery and femoral vein were cannulated for recording blood pressure and for administration of drug solutions, respectively. Blood pressure was recorded on a polygraph through a pressure transducer. A paramedian incision was made lateral to the penis and the bladder was exposed. Urine was drained through a cannula put directly into the bladder and it was guided into the urethra gently and was placed at the prostatic urethra. Balloon was inflated with 2 cc air and its placement was confirmed by digital pressure. Intraurethral pressure was recorded on the polygraph through a pressure transducer. Graded dose response relationship of phenylephrine (1-16 μg/kg, iv) was obtained on prostatic pressure and blood pressure, prior to administration of the compounds of the present invention. Compounds 2, 9, and 13 (at dosages of 0.01, 0.03, 0.1, and 0.3 mg/kg) were administered intravenously 10 min before obtaining phenylephrine dose response curves. Results were analyzed and pseudo pKB values were calculated as described in Kenny et al (1996).

[3] = system: conscious freely moving normotensive rats; assay: Mean arterial blood pressure in conscious freely moving normotensive rats, oral; format: in vivo, rat
Experimental: Femoral artery of normotensive male wistar rats, maintained on an overnight light diet, were catheterized under pentobarbitone anaesthesia (35 mg/kg). Femoral artery catheter was exteriorized through the neck region for blood pressure recording. […] Blood pressure and heart rate were recorded with the help of Statham pressure transducer on a Grass polygraph and the results are shown in Table 4.

[4] = system: conscious spontaneously hypertensive rats; assay: Systolic blood pressure in conscious spontaneously hypertensive rats, oral; format: in vivo, rat
Experimental: Spontaneously hypertensive rats weighing between 250-300 g were used in this study. Rats were fasted overnight. Blood pressure was monitored from tail artery using semi-automatic noninvasive blood pressure monitoring apparatus. Compounds of the present invention (at dosages of 1, 3, 10, and 30 mg/kg) were administered orally. Blood pressure was monitored prior to and 1.5, 4, 6 and 24 hours after drug administration.

[5] = system: anaesthetized normotensive rats; assay: Mean arterial pressure in anaesthetized normotensive rats, intraduodenal route; format: in vivo, rat
Experimental: as §1
Male wistar rats were fasted for 18 hours. Rats were anaesthetized with urethane. Femoral vein and carotid artery were cannulated. A catheter was placed in the duodenum following lapratomy. The compounds of the present invention (at dosages of 0.3, 1, 3 and 10 mg/kg) were administered in the duodenum and blood pressure was monitored for 3 hours.

[6] = target: Muscarinic cholinergic receptor (Rattus norvegicus, UniProt P08483); assay: In vitro receptor selectivity, rat trachea; format: cell-based
Chain of Muscarinic cholinergic receptor (P08483 whole entry): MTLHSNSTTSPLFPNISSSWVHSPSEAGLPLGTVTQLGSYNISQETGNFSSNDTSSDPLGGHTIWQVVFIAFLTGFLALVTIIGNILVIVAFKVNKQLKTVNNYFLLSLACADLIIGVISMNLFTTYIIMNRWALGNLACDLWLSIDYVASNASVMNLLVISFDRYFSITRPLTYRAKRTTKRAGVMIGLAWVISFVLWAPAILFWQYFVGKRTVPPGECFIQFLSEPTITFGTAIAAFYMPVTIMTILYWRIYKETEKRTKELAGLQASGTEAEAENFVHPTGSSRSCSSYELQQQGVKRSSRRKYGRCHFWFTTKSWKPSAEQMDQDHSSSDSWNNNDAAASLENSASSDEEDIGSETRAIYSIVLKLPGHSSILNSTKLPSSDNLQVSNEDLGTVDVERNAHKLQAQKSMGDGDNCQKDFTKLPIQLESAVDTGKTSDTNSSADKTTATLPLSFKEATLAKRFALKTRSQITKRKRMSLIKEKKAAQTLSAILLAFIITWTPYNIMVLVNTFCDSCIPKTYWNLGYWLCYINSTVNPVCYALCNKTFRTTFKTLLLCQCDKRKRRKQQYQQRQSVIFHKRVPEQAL
Experimental: (§2) Selectivity of action of the present compounds was tested against a range of different receptors, e.g., β1- and α2-adrenergic, muscarinic cholinergic, serotoninergic (5-HT2A), histaminergic (H1), angiotensin II, endothelin (ETA and B,), as well as calcium and potassium channels. Rat aorta was used to study the effect of the compounds on 5-HT2A, ETA, calcium and potassium channels. Angiotensin II receptor antagonistic activity was studied in rabbit aorta. Muscarinic cholinergic receptor and ETB receptor antagonistic activity was studied in rat trachea, while guinea pig trachea was used to study H1 receptor antagonistic activity. Electrically stimulated rat vas deferens was used to investigate the effect of α2-adrenoceptors, while β1-adrenoceptor antagonistic activity was studied using electrically stimulated rat ventricular strips. Results of this selectivity study is shown in (Table 2).

[7] = system: Potassium Channel; assay: In vitro receptor selectivity, rat aorta; format: cell-based; details: NE: No effect
Experimental: as §2

[8] = target: α1-adrenergic; details: cited from earlier work

## O=C1CCC(=O)N1CCCN1CCN(c2ccc(F)cc2)CC1 (as salt: hydrochloride) [Compound 1, 1-[4-(4-Fluorophenyl)piperazin-1-yl]-3-(2,5-dioxopyrrolidin-1-yl)propane]
other
  melting point: 246 to 247 °C

## COc1ccccc1N1CCN(CCCN2C(=O)CCC2=O)CC1 (as salt: hydrochloride) [Compound 2, 1-[4-(2-Methoxyphenyl)piperazin-1-yl]-3-(2,5-dioxopyrrolidin-1-yl)propane]
other
  melting point: 199 to 202 °C

## O=C1CCCC(=O)N1CCCN1CCN(c2ccc(Cl)cc2)CC1 (as salt: hydrochloride) [Compound 15, 1-[4-(4-Chlorophenyl)piperazin-1-yl]-3-(2,6-dioxopiperidin-1-yl)propane]
other
  melting point: 206 to 208 °C

## Cc1ccccc1N1CCN(CCCN2C(=O)CCCC2=O)CC1 (as salt: hydrochloride) [Compound 18, 1-[4-(2-Methylphenyl)piperazin-1-yl]-3-(2,6-dioxopiperidin-1-yl)propane]
other
  melting point: 206 to 207 °C

## O=C1CCC(=O)N1CCCN1CCN(c2ccc(F)cc2)CC1 [Compound 1, 1-[4-(4-Fluorophenyl)piperazin-1-yl]-3-(2,5-dioxopyrrolidin-1-yl)propane]
[1]
  Duration: 15.0 min
  In Vivo BP Fall in mmHg: 5.0 mmHg

## COc1ccccc1N1CCN(CCCN2C(=O)CCC2=O)CC1 [Compound 2, 1-[4-(2-Methoxyphenyl)piperazin-1-yl]-3-(2,5-dioxopyrrolidin-1-yl)propane]
[2]
  pseudo pKB Blood Pressure: 6.9
  pseudo pKB Intraurethral Pressure: 7.60
[3]; 3 mg/kg oral
  Mean Arterial Pressure (% Change from basal): −14%
[3]; 10 mg/kg oral
  Mean Arterial Pressure (% Change from basal): −10%
[4]; 1 mg/kg oral
  Systolic Pressure (% Change from basal) (at 6 hours): −7.0%
[4]; 3 mg/kg oral
  Systolic Pressure (% Change from basal) (at 6 hours): −12.0%
[4]; 10 mg/kg oral
  Systolic Pressure (% Change from basal) (at 6 hours): −13.0%
[4]; 30 mg/kg oral
  Systolic Pressure (% Change from basal) (at 6 hours): −17.0%
[5]; 1 mg/kg intraduodenal
  Duration of Action: >2.5 h
  Mean Arterial Pressure (% Change from basal): −19%
[5]; 3 mg/kg intraduodenal
  Duration of Action: >2.5 h
  Mean Arterial Pressure (% Change from basal): −43%
[5]; 10 mg/kg intraduodenal
  Duration of Action: >2.5 h
  Mean Arterial Pressure (% Change from basal): −42%
[1]
  Duration: 120.0 min
  In Vivo BP Fall in mmHg: 25 mmHg
[6]
  pKB Muscarinic: 5.0

## COc1ccccc1N1CCN(CCCCN2C(=O)CCC2=O)CC1 [Compound 9, 1-[4-(2-Methoxyphenyl)piperazin-1-yl]-4-(2,5-dioxopyrrolidin-1-yl)butane]
[2]
  pseudo pKB Blood Pressure: 7.4
  pseudo pKB Intraurethral Pressure: 7.9
[3]; 1 mg/kg oral
  Mean Arterial Pressure (% Change from basal): −4%
[3]; 10 mg/kg oral
  Mean Arterial Pressure (% Change from basal): −11%
[4]; 1 mg/kg oral
  Systolic Pressure (% Change from basal) (at 6 hours): −0.4%
[4]; 3 mg/kg oral
  Systolic Pressure (% Change from basal) (at 6 hours): −7.0%
[4]; 10 mg/kg oral
  Systolic Pressure (% Change from basal) (at 6 hours): −24.0%
[4]; 30 mg/kg oral
  Systolic Pressure (% Change from basal) (at 6 hours): −25.0%
[5]; 1 mg/kg intraduodenal
  Duration of Action: >3.0 h
  Mean Arterial Pressure (% Change from basal): −19%
[5]; 3 mg/kg intraduodenal
  Duration of Action: >3.0 h
  Mean Arterial Pressure (% Change from basal): −53%
[5]; 10 mg/kg intraduodenal
  Duration of Action: >3.0 h
  Mean Arterial Pressure (% Change from basal): −57%
[1]
  Duration: >180 min
  In Vivo BP Fall in mmHg: 46 mmHg
[6]
  pKB Muscarinic: 5.0

## COc1ccccc1N1CCN(CCCN2C(=O)CCCC2=O)CC1 [Compound 13, 1-[4-(2-Methoxyphenyl)piperazin-1-yl]-3-(2,6-dioxopiperidin-1-yl)propane]
[2]
  pseudo pKB Blood Pressure: 7.1
  pseudo pKB Intraurethral Pressure: 8.1
[3]; 1 mg/kg oral
  Mean Arterial Pressure (% Change from basal): −5%
[3]; 3 mg/kg oral
  Mean Arterial Pressure (% Change from basal): −10%
[4]; 1 mg/kg oral
  Systolic Pressure (% Change from basal) (at 6 hours): −7.0%
[4]; 3 mg/kg oral
  Systolic Pressure (% Change from basal) (at 6 hours): −18.0%
[4]; 10 mg/kg oral
  Systolic Pressure (% Change from basal) (at 6 hours): −19.0%
[4]; 30 mg/kg oral
  Systolic Pressure (% Change from basal) (at 6 hours): −14.0%
[5]; 1 mg/kg intraduodenal
  Duration of Action: <3.0 h
  Mean Arterial Pressure (% Change from basal): −32%
[5]; 3 mg/kg intraduodenal
  Duration of Action: >3.0 h
  Mean Arterial Pressure (% Change from basal): −40%
[5]; 10 mg/kg intraduodenal
  Duration of Action: >3.0 h
  Mean Arterial Pressure (% Change from basal): −42%
[1]
  Duration: >180 min
  In Vivo BP Fall in mmHg: 50.0 mmHg
[7]
  pKB Potassium Channel: 5
[6]
  pKB Muscarinic: 5.5

## O=C1CCCC(=O)N1CCCN1CCN(c2ccc(F)cc2)CC1 [Compound 14, 1-[4-(4-Fluorophenyl)piperazin-1-yl]-3-(2,6-dioxopiperidin-1-yl)propane]
other
  melting point: 200 to 202 °C
[1]
  Duration: 60.0 min
  In Vivo BP Fall in mmHg: 20.0 mmHg

## O=C1CCCC(=O)N1CCCN1CCN(c2ccccc2F)CC1 [Compound 17, 1-[4-(2-Fluorophenyl)piperazin-1-yl]-3-(2,6-dioxopiperidin-1-yl)propane]
[1]
  Duration: 120.0 min
  In Vivo BP Fall in mmHg: 50.0 mmHg

## Cc1ccccc1N1CCN(CCCN2C(=O)CCCC2=O)CC1 [Compound 18, 1-[4-(2-Methylphenyl)piperazin-1-yl]-3-(2,6-dioxopiperidin-1-yl)propane]
[1]
  Duration: >150 min
  In Vivo BP Fall in mmHg: 40.0 mmHg

## COc1cc2nc(N3CCN(C(=O)c4ccco4)CC3)nc(N)c2cc1OC [prazosin]
[8]
  α1-adrenergic blocking activity (pKi): > 8
